Article PMC4980783 (Chemistry Central Journal, 2016)
Where “and” joins values, the source holds several entries; their conditions need not be identical. Identical values can stand only once. Like-named read-outs stand apart in the source and are kept apart here.

Target: influenza virus NA (Influenza A virus, UniProt Q6DPL2)
Type: biochemical
Settings: single replicates (3)

Chain of influenza virus NA (Q6DPL2 whole entry, looked up): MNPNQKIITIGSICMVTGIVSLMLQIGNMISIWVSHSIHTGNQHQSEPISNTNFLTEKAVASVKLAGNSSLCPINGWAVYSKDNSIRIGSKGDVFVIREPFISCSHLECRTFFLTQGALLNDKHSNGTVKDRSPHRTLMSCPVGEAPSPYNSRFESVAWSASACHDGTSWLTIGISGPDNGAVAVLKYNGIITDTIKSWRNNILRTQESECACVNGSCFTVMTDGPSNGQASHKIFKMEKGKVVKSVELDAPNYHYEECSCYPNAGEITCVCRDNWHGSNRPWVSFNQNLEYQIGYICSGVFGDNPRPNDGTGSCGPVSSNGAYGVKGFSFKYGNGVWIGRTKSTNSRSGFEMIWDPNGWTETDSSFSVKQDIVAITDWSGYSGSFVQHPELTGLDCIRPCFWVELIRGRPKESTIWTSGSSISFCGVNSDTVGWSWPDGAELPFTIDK

SMILES: CC(=O)N[C@H]1[C@H]([C@H](O)[C@H](O)CO)OC(C(=O)O)=C[C@@H]1N=C(N)N [Zanamivir, zanamivir]
- inhibition rates (first line per compound): 100.00 and 99.40 and 99.96
- inhibition rates (second line per compound, presumably 5-fold diluted (Sheet1)): 44.04 and 41.05
- inhibition rates (third line per compound): 17.05 and 17.04 and 19.04
